{
  "source": "patent US8846330B2",
  "about": "“Methods and kits for the diagnosis of RyR1-related diseases” (The Henry M. Jackson Foundation for the Advancement of …, priority 2008, dated 2014)",
  "type_in_all_cases": "cell-based",
  "key": {"lymphocyte cells [1]": {"tested_on": "lymphocyte cells", "test": "4CmC-induced adenosine in swine lymphocyte cells, nucleosides assay (Example 4)", "details": "for EC50: Sus scrofa, Lymphocyte; for peak ADO level upon 4CmC stimulation, mean±SEM: near 1 mM 4CmC", "method": "Isolation of lymphocytes from whole blood: Lymphocyte cells were isolated from whole blood by Ficoll-Hypaque density gradient centrifugation technique (see Boyum A., Scand. J. Clip. Lab. 97:77-89 (1968)). Isolated lymphocyte cells were dispensed into 3-volume normal Hanks' balanced salt solution (HBSS) and centrifuged (10 minutes at 1000 RPM). The pellet was re-suspended in HBSS to lyse contaminating erythrocytes and spun. The later step was repeated one more time. To maintain simplicity of the protocol for possible MH diagnostic purposes no further purification was attempted. Lymphocyte cells were then cultured in RPMI-1640 media supplemented with 10% fetal bovine serum, […] penicillin and 2 mM glutamine. Cell cultures were incubated at 37° C. in a humidified chamber with 5% CO2. All experiments were completed within 4 days after isolation of lymphocyte cells from whole blood samples.\nNucleosides Assay Protocol: Briefly, lymphocyte cells (1−2×10^6 cells/test) were suspended in HBSS with or without Ca^2+/Mg^2+ (as indicated for each experiment) plus 0.1% bovine serum albumin (BSA). Experiments were carried out in the presence of the adenosine deaminase inhibitor erythro-9-(2-hydroxy-3-nonyl) adenine-HCl ([…]) to prevent deamination of adenosine to inosine (Lorbar et al., J Mol Cell Cardiol 31: 401-12 (1999)) and incubated at 37° C. for 10 minutes followed by treatment with different 4CmC concentrations (0.05-10 mM). Further incubation at 37° C. for an additional 45 minutes was also carried out. Final volumes of the test tubes were adjusted to 0.2 ml using HBSS buffer. Termination of the cell activity and purification of samples was accomplished by addition of 0.1 ml 12% perchloric acid followed by centrifugation at 5000 RPM for 10 minutes. Aliquots of the supernatant (50 μl) were assayed for adenosine and inosine content using HPLC.\nHPLC Conditions: The HPLC system consisted of a Waters Symmetry C18 column (4.6×250 mm) and mobile phase of 94% KH2PO4 (50 mM, pH 4.6) containing 1-heptanesulfonic acid (0.5 mM) and 6% acetonitrile. Under these conditions, retention times for inosine and adenosine were 4 and 7.3 min, respectively. Peak width of inosine and adenosine were 18 and 36 seconds, respectively. Eluting compounds were detected by their absorbance at 254 nm using a Waters photodiode array detector (model 996). Sample adenosine and inosine concentrations were obtained using a calibrated standard curve of concentrations vs. peak area.\nStatistics: Sample nucleosides concentrations were normalized to represent per 1 million cells and presented as means±SEM. The t-test was applied to test for differences between agonist-induced nucleosides in lymphocyte cells from MHS and normal swine. A P<0.05 considered to indicate statistical significance."}, "lymphocyte cells [2]": {"tested_on": "lymphocyte cells", "test": "4CmC-induced adenosine/inosine in human peripheral blood lymphocytes, HPLC (Example 1)", "details": "for 4CmC response (adenosine plus inosine) in MHS group relative to MHN or normal groups: EHNA 0.1 mM", "method": "FIG. 2 is a dose-response curve for 4-chloro-m-cresol (4CmC)-induced intracellular adenosine plus inosine in lymphocyte cells from malignant hyperthermia susceptible (MHS, n=11), not-susceptible (MHN, n=9), and normal (n=7) subjects. Lymphocyte cells were treated with 4CmC in the presence of an inhibitor of adenosine deaminase (EHNA, 0.1 mM). After purification, aliquot was analyzed for adenosine and inosine content using HPLC. Adenosine plus inosine values in the absence of 4CmC are plotted against X=0.02 mM to allow logarithmic display of the entire dose response curve. Adenosine plus inosine levels were normalized to reflect per 1 million cells. 4CmC responses at 1, 2, and 5 mM on MHS groups are about 4, 4, and 6 fold higher than the corresponding values in MI-1N or normal groups with values of 6×10^−5, 8×10^−5, and […], respectively. There were no overlaps between the MHS group and the MHN or normal groups.\nLymphocyte cells from MHS (n=11), MHN (n=9) and normal (n=7) subjects were suspended in normal HBSS plus 0.1% BSA and treated with adenosine deaminase inhibitor (EHNA, 0.1 mM). After 10 minutes of incubation at 37° C., cells were treated with HBSS, with and without the RyR1 agonist 4CmC (5 mM) and incubated at 37° C. for an additional 45 minutes. After termination and purification of the samples, aliquots (50 μl) were assayed in duplicate for adenosine and inosine content using HPLC. Concentrations are normalized to per 1 million cells. The sum of the adenosine plus inosine level is about 6-fold higher than corresponding values in normal and MHN cells.\nPilot studies were conducted using blood samples from human subjects in the following groups: Group 1: MHS subjects with positive CHCT and/or having a known MH associated mutation (n=11); Group 2: non-MH susceptible with negative CHCT results (MHN) (n=9), and Group 3: normal subjects who had not undergone CHCT and had no family history of MH (n=7).\nBriefly, venous blood samples (20 ml) were drawn from patients using heparinized blood collection tubes. Peripheral blood lymphocyte cells were isolated from whole blood by the Ficoll-Hypaque centrifugation technique. Briefly, diluted anti-coagulated blood is layered over Ficoll-Hypaque and centrifuged. Mononuclear cells consisting of lymphocytes and some monocytes are recovered at the interface. The cells were washed with the Flanks' balanced salt solution (HBSS) buffer, re-suspended in the HBSS buffer, and treated with different concentration of 4CmC at 37° C. in the presence and/or absence of inhibitor of adenosine deaminase erythro-9-(2-hydroxy-3-nonyl)adenine (EHNA) for about 30 minutes. The cells were then purified by adding an equal volume of 6% HClO4 and centrifuged at 6000 rpm for 10 minutes. Aliquots of the supernatant were analyzed for adenosine and inosine content with HPLC using a Waters Separation Module (Model 2695) equipped with Waters Photodiode Array Detector and Empower software."}, "lymphocyte cells [3]": {"tested_on": "lymphocyte cells", "test": "4CmC-induced adenosine in human lymphocyte / immortalized B cells (Example 3)", "details": "for ADO level at maximum of 4CmC dose response, mean±SEM: 2 mM 4CmC, EHNA 0.1 mM"}},
  "note": "Values joined by “and” are separate entries in the source; they are usually repeats but may differ in a detail not shown here. Equal values may be shown once. “Also recorded” adds a separate entry of the source. Read-outs that look alike come from different tables or passages of the source.",
  "data": [
    {"smiles": "Cc1cc(O)ccc1Cl", "note": "[4CmC, 4-chloro-m-cresol]", "values": [
      {"measurement": "4CmC-induced ADO in lymphocyte cells from MHS swine versus normal swine", "setting": "lymphocyte cells [1]", "value": "significantly greater; also recorded: significantly higher"},
      {"measurement": "4CmC-induced ADO, mean±SEM", "setting": "lymphocyte cells [1]; 1 mM 4CmC, Ca2+/Mg2+-free HBSS, normal swine (n=6)", "value": "0.244 ± 0.026", "unit": "µM"},
      {"measurement": "basal plus 4CmC-induced ADO range", "setting": "lymphocyte cells [1]; 1 mM 4CmC, MHS swine cells", "value": "0.250 to 0.537", "unit": "µM"},
      {"measurement": "4CmC-induced ADO, mean±SEM", "setting": "lymphocyte cells [1]; 1 mM 4CmC, normal HBSS, normal swine (n=6)", "value": "0.326 ± 0.023", "unit": "µM"},
      {"measurement": "increase in ADO formation in the presence of extracellular Ca2+", "setting": "lymphocyte cells [1]; 1 mM 4CmC, normal swine", "value": "25.2±5.1", "unit": "%"},
      {"measurement": "basal plus 4CmC-induced ADO range", "setting": "lymphocyte cells [1]; 1 mM 4CmC, normal swine cells", "value": "0.145 to 0.209", "unit": "µM"},
      {"measurement": "4CmC-induced ADO, mean±SEM", "setting": "lymphocyte cells [1]; 2 mM 4CmC, absence of extracellular Ca2+, normal swine", "value": "0.167 ± 0.018", "unit": "µM"},
      {"measurement": "4CmC-induced adenosine relative to basal adenosine level", "setting": "lymphocyte cells [1]; 2 mM 4CmC, no FCCP, Ca2+/Mg2+ free HBSS, normal swine (n=5)", "value": 5.8, "unit": "fold"},
      {"measurement": "increase in 4CmC-induced ADO formation in the presence of extracellular Ca2+", "setting": "lymphocyte cells [1]; 2 mM 4CmC, normal swine", "value": "41±3.3", "unit": "%"},
      {"measurement": "4CmC-induced ADO, mean±SEM", "setting": "lymphocyte cells [1]; 2 mM 4CmC, presence of extracellular Ca2+, normal swine", "value": "0.284 ± 0.023", "unit": "µM"},
      {"measurement": "increase in sensitivity to 4CmC in the MHS cell population", "setting": "lymphocyte cells [1]; MHS vs normal swine cells", "value": "~60", "unit": "%"},
      {"measurement": "EC50", "setting": "lymphocyte cells [1]; read-out: estimated EC50 of 4CmC for ADO formation, MHS swine cells", "value": "550 ± 60", "unit": "µM"},
      {"measurement": "EC50", "setting": "lymphocyte cells [1]; read-out: estimated EC50 of 4CmC for ADO formation, normal swine cells", "value": "340 ± 40", "unit": "µM"},
      {"measurement": "peak ADO level upon 4CmC stimulation, mean±SEM", "setting": "lymphocyte cells [1]; normal HBSS, MHS swine cells (n=7)", "value": "0.389 ± 0.033", "unit": "µM"},
      {"measurement": "peak ADO level upon 4CmC stimulation, mean±SEM", "setting": "lymphocyte cells [1]; normal HBSS, normal swine cells (n=7)", "value": "0.199 ± 0.005", "unit": "µM"},
      {"measurement": "4CmC concentration at which ADO levels peaked", "setting": "lymphocyte cells [1]; swine lymphocytes, normal HBSS", "value": "~1", "unit": "mM"},
      {"measurement": "4CmC response (adenosine plus inosine) in MHS group relative to MHN or normal groups", "setting": "lymphocyte cells [2]; 1 mM 4CmC", "value": "about 4 fold"},
      {"measurement": "4CmC response (adenosine plus inosine) in MHS group relative to MHN or normal groups", "setting": "lymphocyte cells [2]; 2 mM 4CmC", "value": "about 4 fold"},
      {"measurement": "stimulation of adenosine plus inosine formation in control and MHN samples", "setting": "lymphocyte cells [2]; 5 mM 4CmC (maximum effective dose)", "value": "did not, or minimally stimulated"},
      {"measurement": "stimulation of nucleosides formation by 4CmC in MHS samples", "setting": "lymphocyte cells [2]; 5 mM 4CmC, FIG. 3", "value": "~6", "unit": "fold"},
      {"measurement": "adenosine plus inosine level after 4CmC treatment, mean±SEM", "setting": "lymphocyte cells [2]; 5 mM 4CmC, MHN group (n=9)", "value": "5.4 ± 0.6", "unit": "µM"},
      {"measurement": "adenosine plus inosine level after 4CmC treatment, mean±SEM", "setting": "lymphocyte cells [2]; 5 mM 4CmC, MHS group (n=11)", "value": "35.6 ± 3.1", "unit": "µM"},
      {"measurement": "adenosine plus inosine level after 4CmC treatment, mean±SEM", "setting": "lymphocyte cells [2]; 5 mM 4CmC, normal group (n=7)", "value": "5.6 ± 1", "unit": "µM"},
      {"measurement": "[Adenosine] μM Post 5 mM 4CmC", "setting": "lymphocyte cells [2]; lymphocytes of single normal subjects, 5 mM 4CmC", "value": "0.220 µM and 0.144 µM and 0.246 µM and 0.154 µM and 0.276 µM and 0.177 µM and 0.268 µM"},
      {"measurement": "4CmC concentration at which inosine release reaches saturation", "setting": "lymphocyte cells [2]; without EHNA", "value": "about 5 mM"},
      {"measurement": "4CmC concentrations that stimulate inosine release dose-dependently", "setting": "lymphocyte cells [2]; without EHNA", "value": "above 1 mM"},
      {"measurement": "effect of 4CmC on adenosine formation", "setting": "lymphocyte cells [2]; without adenosine deaminase inhibitor", "value": "not affected"},
      {"measurement": "ADO level at maximum of 4CmC dose response, mean±SEM", "setting": "lymphocyte cells [3]; MHS cells", "value": "1.71 ± 0.13", "unit": "µM"},
      {"measurement": "ADO level at maximum of 4CmC dose response, mean±SEM", "setting": "lymphocyte cells [3]; normal cells", "value": "0.61 ± 0.11", "unit": "µM"},
      {"measurement": "4CmC-induced adenosine in MHS (CHCT-positive) versus normal / CHCT-negative lymphocyte cells", "setting": "lymphocyte cells [3]; FIG. 5 and 6", "value": "significantly higher; also recorded: significantly greater"},
      {"measurement": "4CmC concentration at which ADO levels maximized", "setting": "lymphocyte cells [3]; human lymphocytes", "value": 2, "unit": "mM"}
    ]}
  ]
}
